Results reported in PMC7179202 (Molecules, 2020).

How the values were obtained:
[1] = test system: non-malignant human lung fibroblasts (HLF); test: MTT cytotoxicity assay, HLF; conditions: Fibroblast, read-out: IC50 HLF
Procedure: (§1) In addition, to assess the amount of prodrug activation in these models, the cytotoxicity of the activated drugs after (cell-free) pre-incubation with H2O2 was tested for comparison.
(§2) All samples were dissolved in DMSO and diluted to the indicated concentrations (final concentrations of DMSO were below 1%). […] Viability was measured using 3-(4,5-dimethylthiazol-2-yl)-2,5-diphenyltetrazolium bromide (MTT) based vitality assay (EZ4U; Biomedica, Vienna, Austria) following the manufacturer’s recommendations.

[2] = test system: RUMH (c-MET-overexpressing renal cell carcinoma); test: MTT cytotoxicity assay, RUMH; conditions: for IC50: Homo sapiens, read-out: IC50 RUMH; for Ratio of IC50 ±H2O2, RUMH: IC50 without / with H2O2 pre-incubation
Procedure: as §1, §2

[3] = test system: H1993 (c-MET-dependent non-small cell lung cancer); test: MTT cytotoxicity assay, H1993; conditions: for IC50: Homo sapiens, NCI-H1993, read-out: IC50 H1993; for Ratio of IC50 ±H2O2, H1993: IC50 without / with H2O2 pre-incubation
Procedure: as §1, §2

[4] = test system: H2228 (ALK-dependent non-small cell lung cancer); test: MTT cytotoxicity assay, H2228; conditions: for IC50: Homo sapiens, NCI-H2228, read-out: IC50 H2228; for Ratio of IC50 ±H2O2, H2228: IC50 without / with H2O2 pre-incubation
Procedure: as §1, §2

[5] = H2O2 activation assay (HPLC); conditions: for Release of free crizotinib / Product of activation with H2O2: ten equivalents H2O2, phosphate buffer 50 mM pH 7.4, 37 °C; for Product of activation with H2O2: 1 h, HPLC-MS
Procedure: Therefore, the activation process was verified by incubation with ten equivalents of H2O2 in phosphate buffer (50 mM, pH 7.4) at 37 °C. […] In a complex biological environment, this quinone methide usually reacts with other nucleophiles; consequently, this side reaction can be neglected.
Additionally, a H2O2 solution (1 mM) in PB7.4 was prepared. The activation was started by addition of 5 µL of drug solution and 25 µL of H2O2 to 70 µL of PB7.4 and incubated at 37 °C for 1 h. At time point 0 and every 8 min, the sample were measured via HPLC. All measurements were performed on a ThermoFisher Ultimate 3000RS system using a Water’s Acquity BEH C18 column (3 × 50 mm, 1.7 µm) and a 5%–95% gradient of acetonitrile (+0.1% TFA) in water (+0.1% TFA). […] The results are visualized in Figure S6 for prodrug A and in Figure S7 for prodrug B.

ALK = ALK (Homo sapiens, UniProt Q9UM73); test: Cell-free kinase inhibition assay (SelectScreen, Z'-LYTE), ALK; conditions: for Prodrug factor ALK = IC50 (prodrug)/IC50 (crizotinib): cell-free kinase assay
Description: (§3) The test compounds were screened in a final concentration of 1% DMSO using the Z′-LYTE® Assay.

c-MET = c-MET (Homo sapiens, UniProt P08581); test: Cell-free kinase inhibition assay (SelectScreen, Z'-LYTE), c-MET; conditions: for Prodrug factor c-MET = IC50 (prodrug)/IC50 (crizotinib): cell-free kinase assay
Description: as §3

[6] = Stability in R10 medium and fetal calf serum (HPLC-MS); conditions: R10 medium and pure FCS, 37 °C, after 72 h
Procedure: After precipitation of the macromolecules with acetonitrile, the supernatant was investigated via HPLC-MS measurements (Figure 4).
The 10 mM stock solutions of the drugs were prepared in DMSO and diluted 1:10 with PB7.4. […] At different time points, macromolecules were precipitated by addition of 40 µL of acetonitrile, vortexed and centrifuged for 10 min at 6000 rpm. The supernatant was extracted and investigated via HPLC-MS measurements.

[7] = set-up: method as in PMID 28256516; conditions: approved orally applied drug, SwissADME prediction; cited from earlier work

Sequence of c-MET (P08581 25-1390): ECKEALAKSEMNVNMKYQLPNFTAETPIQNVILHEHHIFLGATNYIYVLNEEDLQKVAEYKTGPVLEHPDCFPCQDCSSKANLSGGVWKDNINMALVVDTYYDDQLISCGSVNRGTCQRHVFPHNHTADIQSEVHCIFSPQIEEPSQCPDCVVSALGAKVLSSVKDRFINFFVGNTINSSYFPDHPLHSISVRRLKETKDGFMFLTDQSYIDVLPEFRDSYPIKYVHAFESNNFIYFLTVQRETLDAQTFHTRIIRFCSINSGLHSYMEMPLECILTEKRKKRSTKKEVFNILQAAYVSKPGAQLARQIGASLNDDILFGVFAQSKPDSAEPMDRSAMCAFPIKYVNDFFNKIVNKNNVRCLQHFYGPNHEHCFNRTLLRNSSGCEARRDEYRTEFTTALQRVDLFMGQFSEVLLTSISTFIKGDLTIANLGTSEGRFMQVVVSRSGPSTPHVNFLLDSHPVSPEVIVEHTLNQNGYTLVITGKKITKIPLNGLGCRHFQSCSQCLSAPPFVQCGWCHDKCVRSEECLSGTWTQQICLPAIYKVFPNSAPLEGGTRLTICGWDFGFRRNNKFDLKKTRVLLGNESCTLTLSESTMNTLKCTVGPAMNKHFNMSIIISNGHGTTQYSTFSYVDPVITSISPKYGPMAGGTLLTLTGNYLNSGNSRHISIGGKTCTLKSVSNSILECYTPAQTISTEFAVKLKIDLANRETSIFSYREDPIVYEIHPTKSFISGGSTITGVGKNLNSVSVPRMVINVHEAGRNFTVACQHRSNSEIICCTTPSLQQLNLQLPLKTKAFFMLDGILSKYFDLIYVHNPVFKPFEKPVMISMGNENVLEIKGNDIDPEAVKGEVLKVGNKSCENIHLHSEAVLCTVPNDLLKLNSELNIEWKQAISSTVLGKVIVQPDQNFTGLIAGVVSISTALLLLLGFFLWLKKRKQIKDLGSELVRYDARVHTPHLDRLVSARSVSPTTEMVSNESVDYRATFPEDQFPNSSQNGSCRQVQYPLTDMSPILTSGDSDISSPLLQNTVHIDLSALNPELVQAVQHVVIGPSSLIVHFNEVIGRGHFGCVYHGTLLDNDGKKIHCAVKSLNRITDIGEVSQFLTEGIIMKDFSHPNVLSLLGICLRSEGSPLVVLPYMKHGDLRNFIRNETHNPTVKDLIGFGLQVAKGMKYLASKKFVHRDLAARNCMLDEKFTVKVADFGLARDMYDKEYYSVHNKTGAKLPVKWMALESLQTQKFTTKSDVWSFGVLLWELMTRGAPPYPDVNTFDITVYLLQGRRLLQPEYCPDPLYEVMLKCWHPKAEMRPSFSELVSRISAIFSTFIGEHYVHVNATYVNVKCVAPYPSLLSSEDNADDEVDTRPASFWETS
Sequence of ALK (Q9UM73 19-1620): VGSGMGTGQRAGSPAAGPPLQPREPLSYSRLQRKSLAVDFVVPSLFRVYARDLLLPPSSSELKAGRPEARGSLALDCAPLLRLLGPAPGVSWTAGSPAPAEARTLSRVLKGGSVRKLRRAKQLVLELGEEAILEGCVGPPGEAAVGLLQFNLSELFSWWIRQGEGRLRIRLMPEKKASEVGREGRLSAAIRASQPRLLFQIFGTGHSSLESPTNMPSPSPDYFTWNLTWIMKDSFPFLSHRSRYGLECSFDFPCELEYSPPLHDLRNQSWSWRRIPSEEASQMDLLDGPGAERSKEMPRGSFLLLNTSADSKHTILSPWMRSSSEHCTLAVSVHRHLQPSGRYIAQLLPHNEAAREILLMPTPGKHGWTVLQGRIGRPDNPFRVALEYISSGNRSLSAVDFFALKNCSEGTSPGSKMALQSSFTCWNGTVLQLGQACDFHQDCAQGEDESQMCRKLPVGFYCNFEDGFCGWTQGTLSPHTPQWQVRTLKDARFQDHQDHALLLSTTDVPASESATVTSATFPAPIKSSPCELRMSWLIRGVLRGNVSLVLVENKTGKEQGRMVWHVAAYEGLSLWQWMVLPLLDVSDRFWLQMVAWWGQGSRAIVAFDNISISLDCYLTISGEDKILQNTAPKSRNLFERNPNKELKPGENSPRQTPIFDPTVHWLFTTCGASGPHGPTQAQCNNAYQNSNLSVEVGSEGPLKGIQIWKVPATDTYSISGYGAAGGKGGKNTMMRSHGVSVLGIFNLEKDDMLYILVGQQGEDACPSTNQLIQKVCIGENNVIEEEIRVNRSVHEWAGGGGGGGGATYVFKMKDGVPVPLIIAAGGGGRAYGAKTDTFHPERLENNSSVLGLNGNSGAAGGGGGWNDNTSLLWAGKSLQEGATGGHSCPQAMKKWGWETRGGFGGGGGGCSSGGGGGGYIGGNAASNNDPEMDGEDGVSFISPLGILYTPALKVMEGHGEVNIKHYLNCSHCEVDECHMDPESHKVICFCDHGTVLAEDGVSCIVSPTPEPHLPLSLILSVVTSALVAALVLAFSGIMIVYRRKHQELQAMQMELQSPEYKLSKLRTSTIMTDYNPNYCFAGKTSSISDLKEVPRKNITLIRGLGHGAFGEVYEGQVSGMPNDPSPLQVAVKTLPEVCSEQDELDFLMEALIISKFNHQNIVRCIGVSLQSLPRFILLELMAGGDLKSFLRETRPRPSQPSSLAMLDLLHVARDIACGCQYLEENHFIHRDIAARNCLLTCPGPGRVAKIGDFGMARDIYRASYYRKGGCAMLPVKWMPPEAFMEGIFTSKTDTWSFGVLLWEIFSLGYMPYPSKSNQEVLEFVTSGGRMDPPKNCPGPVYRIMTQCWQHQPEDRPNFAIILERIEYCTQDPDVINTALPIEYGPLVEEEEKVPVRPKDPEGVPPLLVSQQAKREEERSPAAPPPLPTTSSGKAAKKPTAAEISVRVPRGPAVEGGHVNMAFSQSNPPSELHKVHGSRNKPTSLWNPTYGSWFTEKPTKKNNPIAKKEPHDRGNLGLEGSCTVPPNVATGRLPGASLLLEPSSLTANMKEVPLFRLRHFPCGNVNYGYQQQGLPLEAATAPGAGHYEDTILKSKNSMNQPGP

C[C@@H](Oc1cc(-c2cnn(C3CCNCC3)c2)cnc1NCc1ccc(O)cc1)c1c(Cl)ccc(F)c1Cl [Compound C, (R)-4-(((3-(1-(2,6-Dichloro-3-fluorophenyl)ethoxy)-5-(1-(piperidin-4-yl)-1H-pyrazol-4-yl)pyridin-2-yl)amino)methyl)phenol]
IC50 [1]: 4.03 ± 0.04 µM
IC50 [2]: 5.94 ± 1.09 µM
IC50 [3]: 9.96 ± 2.69 µM
IC50 [4]: 7.23 ± 0.28 µM

C[C@@H](Oc1cc(-c2cnn(C3CCNCC3)c2)cnc1N)c1c(Cl)ccc(F)c1Cl [Crizotinib, reference compound]
IC50 [1]: 6.32 ± 0.39 µM
IC50 [2]: 6.08 ± 1.51 µM
IC50 [3]: 3.18 ± 0.26 µM

C[C@@H](Oc1cc(-c2cnn(C3CCNCC3)c2)cnc1NC(=O)OCc1ccc(B(O)O)cc1)c1c(Cl)ccc(F)c1Cl [Prodrug A, (R)-(4-((((3-(1-(2,6-Dichloro-3-fluorophenyl)ethoxy)-5-(1-(piperidin-4-yl)-1H-pyrazol-4-yl)pyridin-2-yl)carbamoyl)oxy)methyl)phenyl)boronic acid]
Time to activation on incubation with H2O2 ([5]; incubation with H2O2): ≤ 1 h
Release of free crizotinib ([5]; after 10 min): ~ 50%
Release of free crizotinib ([5]; after 1 h): ~ 75%
IC50 [1]: 16.8 ± 1.38 µM
IC50 [2]: 14 ± 3.92 µM
Ratio of IC50 ±H2O2, RUMH [2]: 1.57
IC50 [3]: 9.73 ± 2.63 µM
Ratio of IC50 ±H2O2, H1993 [3]: 1.22
IC50 [4]: 23.1 ± 0.47 µM
Ratio of IC50 ±H2O2, H2228 [4]: 1.62
IC50 (ALK): 0.472 µM
Prodrug factor ALK = IC50 (prodrug)/IC50 (crizotinib) (ALK): 22
IC50 (c-MET): 0.055 µM
Prodrug factor c-MET = IC50 (prodrug)/IC50 (crizotinib) (c-MET): 11

C[C@@H](Oc1cc(-c2cnn(C3CCNCC3)c2)cnc1NCc1ccc(B(O)O)cc1)c1c(Cl)ccc(F)c1Cl [Prodrug B, (R)-(4-(((3-(1-(2,6-Dichloro-3-fluorophenyl)ethoxy)-5-(1-(piperidin-4-yl)-1H-pyrazol-4-yl)pyridin-2-yl)amino)methyl)phenyl)boronic acid]
Product of activation with H2O2 [5]: formation of a hydrolyzed but stable phenol derivative, compound C
Product of activation with H2O2 ([5]; listed as prodrug B): formation of compound C rather than the release of crizotinib
IC50 [1]: 8.99 ± 0.36 µM
IC50 [2]: 5.05 ± 0.44 µM
Ratio of IC50 ±H2O2, RUMH [2]: 0.91
IC50 [3]: 10.2 ± 1.68 µM
Ratio of IC50 ±H2O2, H1993 [3]: 0.87
IC50 [4]: 8.3 ± 0.42 µM
Ratio of IC50 ±H2O2, H2228 [4]: 0.92
Prodrug still intact [6]: 30–40%
IC50 (ALK): 0.333 µM
Prodrug factor ALK = IC50 (prodrug)/IC50 (crizotinib) (ALK): 16
IC50 (c-MET): 0.684 µM
Prodrug factor c-MET = IC50 (prodrug)/IC50 (crizotinib) (c-MET): 137

CS(=O)(=O)CCNCc1ccc(-c2ccc3ncnc(Nc4ccc(OCc5cccc(F)c5)c(Cl)c4)c3c2)o1 [lapatinib]
GI absorption (predicted) [7]: low
